# Entries after “also recorded” stand apart in the source; their conditions may differ. Where two headings read alike, the source gives them in different places. Bridge positions count the residues as written; N and C are the ends. Peptide text beside a SMILES is read from it.
# Legend:
# α-chymotrypsin = α-chymotrypsin (Bos taurus, UniProt P00766); experiment: in vitro; conditions: pH 8
# Description: (§1) Human prolactin releasing peptide (hPRP) was used to show a non-ICK example which contains evenly spaced multiple enzyme cleavage sites. […] To mimic gastric degradation of peptides, 10 μL 100 ng/μL pepsin was mixed with 50 μL 100 ng/μL peptides in 1.5 mL tubes containing 20 μL 1 M glycine (pH2.0) and 20 μL distilled water. To study intestinal degradation of peptides, 10 μL 100 ng/μL trypsin was mixed with 50 μL 100 ng/μL peptides in 1.5 mL tubes containing 10 μL 500 mM Tris-HCl (pH8.0) and 30 μL distilled water; 10 μL 100 ng/μL chymotrypsin was mixed with 50 μL 100 ng/μL peptides in 1.5 mL tubes containing 10 μL 500 mM Tris-HCl (pH8.0), 10 μL 100 mM CaCl2, and 20 μL distilled water; 10 μL 100 ng/μL elastase was mixed with each 50 μL 100 ng/μL peptide in 1.5 mL tube containing 10 μL 500 mM Tris-HCl (pH8.0), 10 μL 100 mM KCl, and 20 μL distilled water. Mixtures of peptides and enzymes were incubated at 37°C for 1–4 hours, and 10 μL aliquots was set aside every 1 hour and placed on ice. 5 μL tricine sample buffer was immediately added to the aliquots and denatured at 100°C for 5 minutes to stop digestion.
# (§2) Denatured samples were separated by SDS-PAGE using SuperSep Ace 15–20% tricine gel (Wako, Osaka, Japan) at 200 V for 1 hour. Coomassie Brilliant Blue staining of the gel was performed with e-Stain 2.0 Protein Staining System using eStain Protein Staining Pad (GenScript, NJ, USA). Detected bands were digitized by an image scanner and quantified with Image Studio Digits (LI-COR Biosciences, NE, USA).
# (§3) Measurements were converted to the rate of degradation compared to the undegraded values. Experiments were repeated in triplicate and results are indicated as means ± SEM. Statistical significance was determined by Tukey-Kramer test and P values of <0.05 were considered significant.
# in vitro = conditions: isolated enzyme elastase, pH 8
# Description: as §1, §2, §3
# elastase = elastase (Sus scrofa, UniProt P00772); experiment: in vitro
# Chain of elastase (P00772 27-266): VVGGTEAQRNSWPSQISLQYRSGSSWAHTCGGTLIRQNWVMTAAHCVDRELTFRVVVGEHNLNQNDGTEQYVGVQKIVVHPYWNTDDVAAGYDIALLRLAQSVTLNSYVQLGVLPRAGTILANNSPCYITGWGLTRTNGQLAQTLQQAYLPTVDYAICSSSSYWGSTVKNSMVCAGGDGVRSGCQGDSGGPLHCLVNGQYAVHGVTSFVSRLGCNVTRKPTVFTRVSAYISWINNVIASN
# Description: as §1, §2, §3
# [1] = In vivo ProTx-II clearance from circulation; conditions: rat
# Description: To observe ProTx-II concentration in circulation blood in vivo, three nonfasted male rats were injected with 0.1 mg/mL/kg of ProTx-II from the femoral vein under isoflurane anesthesia. 450 μL blood samples were taken from the tail vein at 0.083 (5 min), 0.25, 0.5, 1, 2, 4, 8, and 24 hours after the injection using Pasteur pipettes coated with heparin sodium. Plasma was obtained by centrifugation at 10,000 g for 3 minutes at 4°C and stored at −25°C protected from light until analysis. Animal experiments were conducted by Nemoto Science Co., Ltd. (Ibaraki, Japan) in accordance with the guideline of the animal experiment ethics committee (authorization number: 14-0024) and under approval of animal experiment ethics committee of AIST (authorization number: 10150125-A-20131029-001).
# (§4) For sample preparation, 100 μL plasma was mixed with 20 μL 50% methanol and 200 μL 4% phosphoric acid. Whole sample mixture was added to the Oasis HLB 1 cc/10 mg extraction cartridge (Waters) equilibrated with 1 mL methanol and 1 mL distilled water. The column was washed with 1 mL 5% methanol and eluted with 1 mL methanol. The elute was dried under nitrogen flow and dissolved in 100 μL solvent A/B (30% : 70%, v/v) for LC-MS/MS. 10 μL sample was analyzed by a Waters LC-MS/MS unit; ACQUITY UPLC BEH HILIC, 1.7 μm, 2.1 mm I.D. × 100 mm (Milford, MA) was used at a flow rate of 0.3 mL/min by linear gradient elution (solvent A : solvent B = 30% : 70%, v/v, solvent A: 0.1% TFA, solvent B: acetonitrile) using electrospray ionization for Xevo TQ MS (Waters, MA, USA).
# [2] = In vitro ProTx-II degradation in rat blood plasma; format: in vitro ADME; conditions: 1 μg/mL in rat (male SD) blood plasma, 37°C, 24 hours, aliquots at 0, 2, 4, 8, 24 hours; LC-MS/MS; mean of n = 3
# Description: To observe peptide degradation in vitro, blood was extracted from three 8-week-old male SD rats after anesthesia with isoflurane inhalation and the plasma was separated by centrifugation at 1,850 g for 10 minutes at 4°C. Plasma was stored on ice and used within the day of the experiment. ProTx-II was added to the plasma to make 1 μg/mL mixture and incubated at 37°C for 24 hours, withdrawing 250 μL aliquots at 0, 2, 4, 8, and 24 hours. Samples were kept at −25°C away from light until analysis.
# as §4
# rats = system: rats; parameters: method as in PMID 18728100; conditions: cited from earlier work
# trypsin = system: trypsin
# Description: as §1, with “Mixtures of peptides and enzymes were incubated at 37°C for 1–4 hours, and 10 μL aliquots was set aside every 1 hour and placed on ice. 5 μL tricine sample buffer was immediately added to the aliquots and denatured at 100°C for 5 minutes to stop digestion.” left out
# Denatured samples were separated by SDS-PAGE using SuperSep Ace 15–20% tricine gel (Wako, Osaka, Japan) at 200 V for 1 hour. […] Detected bands were digitized by an image scanner and quantified with Image Studio Digits (LI-COR Biosciences, NE, USA).
# Measurements were converted to the rate of degradation compared to the undegraded values. […] Statistical significance was determined by Tukey-Kramer test and P values of <0.05 were considered significant.
structure (smiles),measurement,setting,value
"CC(C)C[C@@H]1NC(=O)[C@@H](NC(=O)CN)CSSC[C@@H]2NC(=O)[C@@H]3CSSC[C@@H](C(=O)N[C@@H](CC(N)=O)C(=O)N[C@@H](Cc4ccccc4)C(=O)N[C@@H](CO)C(=O)N[C@@H](Cc4ccccc4)C(N)=O)NC(=O)[C@H](CC(C)C)NC(=O)[C@H](CCCCN)NC(=O)[C@H](Cc4ccccc4)NC(=O)[C@H](CC(C)C)NC(=O)[C@H](CCCCN)NC(=O)[C@H](CO)NC(=O)[C@H](CSSC[C@H](NC(=O)[C@H](CCCCN)NC(=O)[C@H](Cc4c[nH]c5ccccc45)NC(=O)[C@H](Cc4c[nH]c5ccccc45)NC(=O)[C@H](Cc4ccccc4)NC(=O)[C@H](CCC(=O)O)NC1=O)C(=O)N[C@@H](CC(N)=O)C(=O)N1CCC[C@H]1C(=O)N[C@@H](CC(N)=O)C(=O)N[C@@H](CC(=O)O)C(=O)N[C@@H](CC(=O)O)C(=O)N[C@@H](CCCCN)C(=O)N3)NC(=O)[C@H](CCCCN)NC(=O)[C@H](CC(C)C)NC(=O)[C@H](CCCCN)NC(=O)[C@@H]1CCCN1C(=O)[C@H](CCCNC(=N)N)NC2=O [GsMTx-4] (H-GCLEFWWKCNPNDDKCCRPKLKCSKLFKLCNFSF-NH2; disulfide 2-17, 9-23, 16-30)","degradation by chymotrypsin, overall result in words",α-chymotrypsin,not degraded at all
same,remaining at 4 h,in vitro,> 84%
CSCC[C@@H]1NC(=O)CNC(=O)[C@H](CCC(=O)O)NC(=O)[C@@H]2CSSC[C@H](NC(=O)[C@@H](N)Cc3ccc(O)cc3)C(=O)N[C@@H](CCC(N)=O)C(=O)N[C@@H](CCCCN)C(=O)N[C@@H](Cc3c[nH]c4ccccc34)C(=O)N[C@@H](CCSC)C(=O)N[C@@H](Cc3c[nH]c4ccccc34)C(=O)N[C@@H]([C@@H](C)O)C(=O)N[C@H]3CSSC[C@H](NC(=O)[C@H](C(C)C)NC1=O)C(=O)N[C@@H](CCCNC(=N)N)C(=O)N[C@@H](CC(C)C)C(=O)N[C@@H](Cc1c[nH]c4ccccc14)C(=O)N[C@H](C(=O)N[C@@H](CCCCN)C(=O)N[C@@H](CCCCN)C(=O)N[C@@H](CCCCN)C(=O)N[C@@H](CC(C)C)C(=O)N[C@@H](Cc1c[nH]c4ccccc14)C(=O)O)CSSC[C@H](NC(=O)[C@H](CCCCN)NC(=O)[C@H](CCCNC(=N)N)NC(=O)[C@H](CCC(=O)O)NC(=O)[C@H](CO)NC(=O)[C@H](CC(=O)O)NC3=O)C(=O)N2 [ProTx-II],remaining at 4 h,α-chymotrypsin; isolated enzyme chymotrypsin,86%
same,peptide remaining undigested with elastase at 4 hours,"elastase; elastase, Tris-HCl pH8.0, KCl, 37°C, 4 hours, SDS-PAGE, CBB staining, band quantification, mean of n = 3",over 84%
same,level at 8 h,"[1]; male, plasma, iv, 0.1 mg/mL/kg into the femoral vein, 8 hours after administration, LC-MS/MS, n = 3, read-out: ProTx-II concentration in circulation blood at 8 hours (detection limit)",< 30 ng/mL
same,time for concentration to drop to the detection limit,"[1]; 0.1 mg/mL/kg into the femoral vein, detection limit 30.0 ng/mL, LC-MS/MS, n = 3",≤ 8 h
same,concentration in circulation corresponding to the detection limit of 30 ng/mL,"[1]; 8 hr, molar conversion of the detection limit",7.8 nM
same,degradation in rat blood plasma in vitro (in words),[2],not degraded at all; also recorded: No ProTx-II degradation was observed
same,mortal plasma concentration,rats; 1 mg/kg dosage,3 µM
same,dosage reported to be lethal in rats,rats,1 mg/kg
CC(C)C[C@@H]1NC(=O)[C@H](Cc2c[nH]c3ccccc23)NC(=O)[C@H](Cc2ccc(O)cc2)NC(=O)[C@H](CCCNC(=N)N)NC(=O)[C@@H](NC(=O)[C@@H](N)CCC(=O)O)CSSC[C@@H]2NC(=O)[C@@H]3CSSC[C@@H](C(=O)N[C@H](C(=O)N[C@@H](Cc4c[nH]c5ccccc45)C(=O)N[C@@H](CC(=O)O)C(=O)NCC(=O)N[C@H](C(=O)N[C@@H](Cc4ccccc4)C(=O)N[C@@H](CO)C(=O)O)[C@@H](C)O)C(C)C)NC(=O)[C@H](Cc4c[nH]c5ccccc45)NC(=O)CNC(=O)[C@H](Cc4c[nH]cn4)NC(=O)[C@H](CCCNC(=N)N)NC(=O)[C@H](CCCNC(=N)N)NC(=O)[C@H](CO)NC(=O)[C@H](CSSC[C@H](NC(=O)CNC(=O)CNC1=O)C(=O)N[C@@H](CO)C(=O)N[C@@H](C)C(=O)NCC(=O)N[C@@H](CCC(N)=O)C(=O)N[C@@H]([C@@H](C)O)C(=O)N3)NC(=O)[C@H](C(C)C)NC(=O)[C@H](CC(C)C)NC(=O)[C@H](Cc1c[nH]cn1)NC(=O)[C@H](CCCCN)NC2=O [ProTx-I],degradation by chymotrypsin within 1 hour (in words),α-chymotrypsin,completely degraded
same,remaining at 4 h,"elastase; isolated enzyme elastase, pH 8",22%
same,"degradation by elastase, overall result in words",elastase; pH 8,degraded
same,digestion by trypsin within 1-hour incubation (in words),trypsin; pH 8,almost completely digested
"CC[C@H](C)[C@H](NC(=O)CNC(=O)[C@H](CCCNC(=N)N)NC(=O)[C@H](CO)NC(=O)[C@H](C)NC(=O)[C@H](Cc1ccc(O)cc1)NC(=O)[C@H](Cc1c[nH]c2ccccc12)NC(=O)[C@H](C)NC(=O)[C@@H]1CCCN1C(=O)[C@H](CC(N)=O)NC(=O)[C@@H](NC(=O)[C@H](CC(=O)O)NC(=O)[C@@H]1CCCN1C(=O)[C@@H](NC(=O)[C@H](CCCNC(=N)N)NC(=O)[C@@H](NC(=O)[C@H](CCC(=O)O)NC(=O)[C@H](CCSC)NC(=O)[C@H](CO)NC(=O)[C@H](Cc1c[nH]cn1)NC(=O)[C@H](CCCNC(=N)N)NC(=O)[C@H](Cc1c[nH]cn1)NC(=O)[C@@H](NC(=O)[C@H](CCCNC(=N)N)NC(=O)[C@@H](N)CO)[C@@H](C)O)[C@@H](C)CC)[C@@H](C)O)[C@@H](C)CC)C(=O)N[C@@H](CCCNC(=N)N)C(=O)N1CCC[C@H]1C(=O)N[C@H](C(=O)NCC(=O)N[C@@H](CCCNC(=N)N)C(=O)N[C@@H](Cc1ccccc1)C(N)=O)C(C)C [hPRP, Human prolactin-releasing peptide]",degradation by chymotrypsin within 1 hour (in words),α-chymotrypsin,completely degraded
same,"degradation by elastase, overall result in words","elastase; elastase, pH8.0, 37°C, up to 4 hours, SDS-PAGE, CBB staining, mean of n = 3",eventually digested all
same,digestion by trypsin within 1-hour incubation (in words),"trypsin; 10 μL 100 ng/μL trypsin + 50 μL 100 ng/μL peptide, Tris-HCl pH8.0, 37°C, 1 hour, SDS-PAGE, CBB staining, n = 3",almost completely digested

# Reference: publication PMC4710912, “High Proteolytic Resistance of Spider-Derived Inhibitor Cystine Knots” (International Journal of Peptides, 2015)
